Laboratory results from PMC12396409, “Screening and hit evaluation of a microbial metabolite library against the pathogenic Plasmodium falciparum and Toxoplasma gondii parasites” (International Journal for Parasitology: Drugs and Drug …, 2025).
Read-outs that look alike come from different tables or passages of the source.

Columns and labels:
[1] = tested on: T. gondii RH strain (RH-Tub-eYFP) tachyzoites; assay: microbe, parasite or virus in culture; type: cell-based, Toxoplasma gondii; conditions: 72 h; for percent parasite growth at 2 µg/mL: Toxoplasma gondii
[2] = tested on: P. falciparum 3D7 parasites; assay: P. falciparum growth inhibition assay, 2-cycle (120 h treatment), delayed-death screen and dose-response; type: cell-based, Plasmodium falciparum; conditions: 120 h; for activity at 2 µg/mL: Plasmodium falciparum
[3] = tested on: P. falciparum 3D7 parasites; assay: P. falciparum growth inhibition assay, 1-cycle (72 h treatment), SYBR DNA staining (library screen at 2 μg/mL and dose-response); type: cell-based, Plasmodium falciparum; conditions: 72 h; for activity at 2 µg/mL: Plasmodium falciparum
[4] = library screen at 2 μg/mL, % growth, replicate 1
[5] = library screen at 2 μg/mL, % growth, replicate 2
[6] = T. gondii, screen at 2 μg/mL, replicate 1
[7] = T. gondii, screen at 2 μg/mL, replicate 2
[8] = P. falciparum, screen at 2 μg/mL, replicate 1
[9] = P. falciparum, screen at 2 μg/mL, replicate 2
[10] = T. gondii, screen at 2 μg/mL, replicate 1, read-out: Tg_72h_%Growth_Rep1
[11] = T. gondii, screen at 2 μg/mL, replicate 2, read-out: Tg_72h_%Growth_Rep2

COCCC[C@H]1O[C@@](O)([C@H](C)C2CC(OC)C(O)/C=C(C)/C=C(C)/C=C(/C)C(O[C@H]3O[C@H](C)[C@@H](OC)[C@H](O)[C@H]3O)C(C)/C=C(CO)/C=C(OC)\C=C(/C)C(=O)O2)[C@H](OC)[C@@H](O)[C@]1(C)O[C@H]1C[C@H](O)[C@H](O[C@H]2C[C@@](C)(O)[C@H](O)[C@@H](C)O2)[C@@H](C)O1 (stereo partly shown) [Amycolatopsin A]
Tg_72h_%Growth_Rep1 [1, 4]: 96.54%
Tg_72h_%Growth_Rep2 [1, 5]: 72.55%
Pf_120h_%Growth_Rep1 [2, 4]: 67.28%
Pf_120h_%Growth_Rep2 [2, 5]: 94.98%
Pf_72h_%Growth_Rep1 [3, 4]: 76.67%
Pf_72h_%Growth_Rep2 [3, 5]: 110.14%

C=C1CC[C@H]2[C@@](C)(CC[C@H]3C(C)(C)[C@@H](OC(C)=O)CC[C@]23C)[C@@H]1Cc1c(O)cc(C)oc1=O [Aszonapyrone A]
Tg_72h_%Growth_Rep1 [1, 4]: 111.51%
Tg_72h_%Growth_Rep2 [1, 5]: 88.05%
Pf_120h_%Growth_Rep1 [2, 4]: 67.56%
Pf_120h_%Growth_Rep2 [2, 5]: 67.36%
Pf_72h_%Growth_Rep1 [3, 4]: 77.27%
Pf_72h_%Growth_Rep2 [3, 5]: 75.32%

CO[C@H]1C[C@H](O[C@H]2[C@H](C)O[C@@H](O[C@@H]3/C(C)=C/C[C@@H]4C[C@@H](C[C@]5(C=C[C@H](C)[C@@H](C(C)C)O5)O4)OC(=O)[C@@H]4C=C(C)[C@@H](O)[C@H]5OC/C(=C\C=C\[C@@H]3C)[C@]54O)C[C@@H]2OC)O[C@@H](C)[C@@H]1O [Avermectin B1b]
Tg_72h_%Growth_Rep1 [1, 4]: 74.43%
Tg_72h_%Growth_Rep2 [1, 5]: 75.78%
Pf_120h_%Growth_Rep1 [2, 4]: 7.97%
Pf_120h_%Growth_Rep2 [2, 5]: -7.80%
Pf_72h_%Growth_Rep1 [3, 4]: 8.18%
Pf_72h_%Growth_Rep2 [3, 5]: 3.73%

CC[C@@H]1/C=C(\C)C[C@H](C)C[C@H](OC)[C@H]2O[C@@](O)(C(=O)C(=O)N3CCCC[C@H]3C(=O)O[C@H](/C(C)=C/[C@@H]3CC[C@@H](O)[C@H](OC)C3)[C@H](C)[C@@H](O)CC1=O)[C@H](C)C[C@@H]2OC [Ascomycin]
percent parasite growth at 2 µg/mL ([1]; library screen at 2 μg/mL, % growth, replicate 1, read-out: Tg_72h_%Growth_Rep1): 79.9%
percent parasite growth at 2 µg/mL ([1]; library screen at 2 μg/mL, % growth, replicate 2, read-out: Tg_72h_%Growth_Rep2): 79.4%
activity at 2 µg/mL ([2]; 3D7, library screen at 2 μg/mL, % growth, replicate 1, read-out: Pf_120h_%Growth_Rep1): 70.5%
activity at 2 µg/mL ([2]; 3D7, library screen at 2 μg/mL, % growth, replicate 2, read-out: Pf_120h_%Growth_Rep2): 40.4%
activity at 2 µg/mL ([3]; 3D7, library screen at 2 μg/mL, % growth, replicate 1, read-out: Pf_72h_%Growth_Rep1): 44.9%
activity at 2 µg/mL ([3]; 3D7, library screen at 2 μg/mL, % growth, replicate 2, read-out: Pf_72h_%Growth_Rep2): 50.6%

COC1=C(OC)C(=O)C(C)=C(C)C1=O [Aurantiogliocladin]
Tg_72h_%Growth_Rep1 [1, 4]: 92.07%
Tg_72h_%Growth_Rep2 [1, 5]: 99.65%
Pf_120h_%Growth_Rep1 [2, 4]: 10.46%
Pf_120h_%Growth_Rep2 [2, 5]: -13.06%
Pf_72h_%Growth_Rep1 [3, 4]: 5.55%
Pf_72h_%Growth_Rep2 [3, 5]: 9.01%

CCOCCO[C@@H]1CC[C@@H](C[C@@H](C)[C@@H]2CC(=O)[C@H](C)/C=C(\C)[C@@H](O)[C@@H](OC)C(=O)[C@H](C)C[C@H](C)/C=C/C=C/C=C(\C)[C@@H](OC)C[C@@H]3CC[C@@H](C)[C@@](O)(O3)C(=O)C(=O)N3CCCC[C@H]3C(=O)O2)C[C@H]1OC [Umirolimus, reference compound]
Tg_72h_%Growth_Rep1 [1, 6]: 81.37%
Tg_72h_%Growth_Rep2 [1, 7]: 91.74%
Pf_120h_%Growth_Rep1 [2, 8]: 49.79%
Pf_120h_%Growth_Rep2 [2, 9]: 32.58%
Mean ([3]; P. falciparum, 2 μg/mL, mean of both replicates, growth (% of control)): 22.90
Pf_72h_%Growth_Rep1 [3, 8]: 19.04%
Pf_72h_%Growth_Rep2 [3, 9]: 26.75%

O=C(N[C@H](CO)[C@H](O)c1ccc([N+](=O)[O-])cc1)C(Cl)Cl [Chloramphenicol]
percent parasite growth at 2 µg/mL [1, 10]: 86.7%
percent parasite growth at 2 µg/mL [1, 11]: 85.3%
activity at 2 µg/mL ([2]; 3D7, 120 h, P. falciparum, screen at 2 μg/mL, replicate 1, read-out: Pf_120h_%Growth_Rep1): 117%
activity at 2 µg/mL ([2]; 3D7, 120 h, P. falciparum, screen at 2 μg/mL, replicate 2, read-out: Pf_120h_%Growth_Rep2): 64.9%
activity at 2 µg/mL ([3]; 3D7, 72 h, P. falciparum, screen at 2 μg/mL, replicate 1, read-out: Pf_72h_%Growth_Rep1): 85.8%
activity at 2 µg/mL ([3]; 3D7, 72 h, P. falciparum, screen at 2 μg/mL, replicate 2, read-out: Pf_72h_%Growth_Rep2): 84.9%

CN(C)c1cc(NC(=O)CNC(C)(C)C)c(O)c2c1C[C@H]1C[C@H]3[C@H](N(C)C)C(O)=C(C(N)=O)C(=O)[C@@]3(O)C(O)=C1C2=O [Tigecycline]
percent parasite growth at 2 µg/mL [1, 10]: 144%
percent parasite growth at 2 µg/mL [1, 11]: 97%
activity at 2 µg/mL ([2]; 3D7, P. falciparum, screen at 2 μg/mL, replicate 1, read-out: Pf_120h_%Growth_Rep1): 106%
activity at 2 µg/mL ([2]; 3D7, P. falciparum, screen at 2 μg/mL, replicate 2, read-out: Pf_120h_%Growth_Rep2): 93.4%
activity at 2 µg/mL ([3]; 3D7, P. falciparum, screen at 2 μg/mL, replicate 1, read-out: Pf_72h_%Growth_Rep1): 88.2%
activity at 2 µg/mL ([3]; 3D7, P. falciparum, screen at 2 μg/mL, replicate 2, read-out: Pf_72h_%Growth_Rep2): 87.6%

CC(=O)OC[C@@H](NC(=O)C(Cl)Cl)[C@H](O)c1ccc([N+](=O)[O-])cc1 [Chloramphenicol acetate]
Tg_72h_%Growth_Rep1 [1, 6]: 132.16%
Tg_72h_%Growth_Rep2 [1, 7]: 92.80%
Pf_120h_%Growth_Rep1 [2, 8]: 100.35%
Pf_120h_%Growth_Rep2 [2, 9]: 90.22%
Pf_72h_%Growth_Rep1 [3, 8]: 90.71%
Pf_72h_%Growth_Rep2 [3, 9]: 92.14%
